# Details: buffer; pH 7.4; 200.0 µM
row,SMILES,solubility kinetic [µg/mL]
1,Cc1cc2oc(=O)c(CC(=O)NCCCO)c(C)c2c2occ(C(C)(C)C)c12,28
2,COc1ccc(CCNC(=O)c2cc(Cl)nc3ccccc23)cc1,5.9
3,Cc1cnc(NC(=O)c2c(-c3ccccc3)noc2C)s1,39.8
4,COc1cc2c(cc1OC)CN(Cc1ccc(C)cc1)CC2,35.1
5,CC(=O)Nc1ccc(S(=O)(=O)c2cc(O)ccc2O)cc1,> 46.1
6,O=C(CSCc1c(F)cccc1F)Nc1ccccc1,37.7
7,Cc1cc(S(=O)(=O)N2CCN(C(=O)c3ccco3)CC2)ccc1F,> 52.9
8,C=CCNc1nc2c(c(=O)[nH]c(=O)n2C)n1CCCc1ccccc1,5.2
9,O=C1c2ccccc2C(O)(c2ccccc2)N1CCc1ccccc1 (centres undefined),1.3
10,O=C(COC(=O)c1ccc(F)cc1F)Nc1ccc(Cl)cn1,3.9
11,CCCNC(=S)Nc1cc2oc3ccccc3c2cc1OC,0.4
12,COc1ncnc(OC)c1S(=O)(=O)NCc1ccccc1,> 46.4
13,Clc1nc(-c2ccccc2)c2ccccc2n1,17.6
14,Cc1ccc2cc3cc(C(=O)NC4CC4)oc3nc2c1,1.3
15,CCOC(=O)CSc1nc(COc2ccccc2)nc2ccccc12,0.6
16,CCC(C)NC(=O)C(=O)NCC1CCCN1CC (centres undefined),28.8
17,CC(C)Cc1cc(C(=O)Nc2cccc(O)c2)no1,13.6
18,CCOc1ccc(C(=O)OCC(=O)N2CCCC2)cc1,> 41.6
19,CN1CCN(c2nc(-c3ccc(Cl)cc3)cc(=O)[nH]2)CC1,39.8
20,O=C(Nc1cccc2c1CCCC2)c1ccccc1Cl,1.8
21,Cc1ccc(Nc2ncnc(N)n2)cc1,29.5
22,Cc1oc(C)c(S(=O)(=O)NCc2cccs2)c1C(=O)O,> 47.3
23,CC(C)OP(=O)(c1ccc(N(C)C)cc1)C(O)c1cccnc1 (centres undefined),> 50.2
24,O=C(c1ccccc1F)N1CCC2(CC1)OCCO2,> 39.8

row,SMILES,solubility kinetic [µg/mL]
1,CCc1ccc(/C([O-])=C(/C(=S)NCCN2CCOCC2)[n+]2ccccc2)cc1,55.4
2,CCN(CC(=O)Nc1ccc2c(c1)OCCO2)CC(=O)Nc1ccccc1C(F)(F)F.O=C(O)C(=O)O,47.7
3,CCOc1ccccc1CNc1nc2ccccc2n1C,5.2
4,C=CCOc1ccc(C2NC(=O)c3ccccc3O2)cc1 (centres undefined),1.3
5,Cc1ccc2c(C(=O)CCl)c(C)[nH]c2c1,3.4
6,Cc1ccc2c(c1)oc(=O)n2CC(=O)c1ccccc1,6.5
7,O=C(Nc1ccc2c(c1)OCO2)c1ccc([N+](=O)[O-])cc1[N+](=O)[O-],10.6
8,O=C1CCc2cc(S(=O)(=O)Nc3ccc(F)cc3)ccc2N1,> 48.1
9,COc1ccc(C23NCCN2C(=O)c2ccccc23)cc1 (centres undefined),> 42
10,O=C(COC(=O)c1ccc(Cl)nc1)NCc1cccs1,25.2
11,O=C(Nc1ccc([N+](=O)[O-])cc1)N1CCc2ccccc2C1,22
12,NC(=O)C1CCN(c2ccc([N+](=O)[O-])cc2Cl)CC1,3.3
13,COc1cccc(CN(C)C(=O)c2sccc2-c2ccccc2)c1OC,34.6
14,O=C(Nc1cccc(Cl)c1)Nc1c[nH]c(=O)[nH]c1=O,3.4
15,O=C(Nc1ccc(N2CCCC2)cc1)c1cc2ccccc2o1,0.4
16,COc1ccc(/C=C/C(=O)OCC(=O)NCc2ccccc2Cl)cc1OC,8.3
17,CC(C)n1cnc2c(oc3ccccc32)c1=O,7
18,COc1ccc(C(=O)CCC(=O)NC2=NCCS2)cc1,14.6
19,Cc1ccc2nc(Nc3ccccc3)c(C=O)c(=O)n2c1,1.5
20,COC(=O)c1ccc(N)nc1,> 22.8
21,O=C(Nc1cccc2cccnc12)c1ccc(Cl)cc1Cl,< 0.3
22,CCOC(=O)C1CCCN(C(=O)c2cc(-c3ccco3)nc3ccccc23)C1 (centres undefined),> 56.8
23,CCC(=O)c1ccc(OCC(=O)NC2(C#N)CCCCC2)cc1,45.4
24,O=C(CSc1cccc2cccnc12)Nc1ccccc1F,7.3

row,SMILES,solubility kinetic [µg/mL]
1,COc1ccc(C(=O)Nc2cc3c4c(c2)C(C)C(=O)N4CCC3)cc1 (centres undefined),38.6
2,COc1cc(NC(=O)CSc2nncn2C)cc(OC)c1OC,> 50.8
3,CC(Sc1nc2ccccc2[nH]1)C(=O)Nc1ccccc1F (centres undefined),43.9
4,S=c1[nH]cc(-c2ccc(Cl)cc2)n1Cc1ccccc1,< 0.3
5,CSc1cccc(N2CC(C(=O)N3CCN(S(=O)(=O)c4ccccc4Cl)CC3)CC2=O)c1 (centres undefined),23.2
6,CCN(CC)P(c1n(C)cc[n+]1C)N(CC)CC.[I-],46.9
7,CC(NC(=O)CSc1ncccc1C(=O)O)C1CC2CCC1C2 (centres undefined),> 50.2
8,CC(=O)N1CCN(S(=O)(=O)c2ccc(Cl)cc2F)CC1,> 48.1
9,Brc1cccc(CN2CCN(c3ncccn3)CC2)c1,25.2
10,Cc1cc(C)nc(N2CCCC(C(=O)Nc3ccc(F)cc3)C2)n1 (centres undefined),1.2
11,CN(C)c1nc(N(C)C)nc(N2CC(CCl)OC2=N)n1 (centres undefined),> 45
12,COc1ccccc1NC(=O)c1coc(=O)c(Br)c1,5.4
13,Cc1ccc(S(=O)(=O)/N=C(\N)c2ccc(F)cc2)cc1,38.1
14,CC(C)CNC(=O)N1c2ccccc2Sc2ccccc21,7.1
15,COc1ccc(NC(C)=O)cc1S(=O)(=O)Nc1ccc(S(=O)(=O)N2CCCCC2)cc1,> 70.1
16,COc1ccc(/C=C/C(=O)OCC(=O)N2CCCCCC2)cc1OC,37.7
17,O=C(CCNC(=O)c1ccc([N+](=O)[O-])cc1)Oc1ccc(F)c(F)c1,> 52.5
18,O=C(c1cc2cc(Br)ccc2s1)N1CCOCC1,45.8
19,O=S1(=O)CCN(CCc2c[nH]c3ccccc23)CC1,38.2
20,COC(=O)c1cc(=O)n2c(sc3ccccc32)c1C#N,1.3
21,O=C(NCC(c1ccco1)N1CCOCC1)c1c(F)cccc1F (centres undefined),> 50.5
22,Cc1ccc(NS(=O)(=O)c2ccc3c(c2)NC(=O)CO3)cc1,10.7
23,COc1ccc(NC(=O)c2nn(C)cc2[N+](=O)[O-])cc1,> 41.4
24,COc1cccc(-c2c(C#N)c(N)nc3c2c(=O)nc2sccn23)c1,23

row,SMILES,solubility kinetic [µg/mL]
1,CC(NC(=O)C1CC1)c1ccc(-c2ccccc2)cc1 (centres undefined),1.5
2,Cc1nn(C)cc1CN(C)S(=O)(=O)c1cccc([N+](=O)[O-])c1,> 48.7
3,CC(NS(=O)(=O)c1cc(C(F)(F)F)ccc1Cl)C(=O)N(C)C1CCN(C)CC1 (centres undefined),> 66.3
4,Cc1onc(-c2c(Cl)cccc2Cl)c1C(=O)Nc1ccc(Cl)cn1,3.9
5,COc1cccc(-c2nc(N)nc(SC)c2C#N)c1,0.6
6,CCC1CCCCN1Cc1ccc(N)cc1 (centres undefined),> 32.8
7,CC(C)N(Cc1ccccc1)C(=O)COC(=O)c1cc(S(=O)(=O)N(C)C)ccc1N1CCCC1,7.5
8,CC1CCC(C(=O)NC(C(=O)Nc2ccccn2)C(C)C)CC1 (centres undefined),13.5
9,O=C(O)/C=C/C(=O)Nc1ccc(OC(F)(F)F)cc1,38.8
10,Cc1ccccc1NC(=O)Cc1c[nH]c2ccccc12,39.5
11,Cl.OC(CNC1CCCC1)COc1ccc(F)cc1 (centres undefined),36.6
12,Cn1cc(C(=O)CCl)c2ccccc21,> 31.1
13,CC(=O)c1c(C)[nH]c(C(=O)CSc2ccc(F)cc2)c1C,2.5
14,CN(C)CCOC(=O)NCC12CC3CC(CC(C3)C1)C2.Cl,> 47.5
15,CC(=O)Nc1ccc(C(=O)/C=C/c2ccc[nH]2)cc1,2.9
16,CN(C(=O)CSc1ncccn1)C1CCS(=O)(=O)C1 (centres undefined),42.2
17,CCc1nc(C)cn1S(=O)(=O)c1ccc(Br)cc1,> 49.4
18,O=C(CCCCC(=O)Nc1c(I)cc(I)c(C(=O)O)c1I)Nc1c(I)cc(I)c(C(=O)O)c1I,> 171
19,CCN(c1ccccc1)S(=O)(=O)c1ccc(C(=O)NC2CCN(Cc3ccccc3)CC2)cc1,47.8
20,CCc1nc2ccccc2c(C(=O)Nc2ccc(C)cc2)c1C,< 0.3
21,CC(=O)c1ccc(NC(=S)N2CCCCCC2)cc1,> 41.5
22,Cc1cc(C)cc(C(=O)N2CCN(Cc3ccc4c(c3)OCO4)CC2)c1,> 52.9
23,O=c1c([N+](=O)[O-])cccn1Cc1cccc(Br)c1,> 46.4
24,CC(C(=O)N1CCCC1)N(C)CC(=O)Nc1cccc(F)c1 (centres undefined),37

row,SMILES,solubility kinetic [µg/mL]
1,CCCN(CC(=O)Nc1cc(Cl)ccc1Cl)C(=O)/C=C/c1cc(OC)ccc1OC,5.1
2,O=C(NCc1ccco1)c1cnn2cccnc12,> 36.3
3,CCN(CC)CCCNc1cc(C)nc2cc(-c3cccs3)nn12,> 51.5
4,Fc1ccccc1COc1ccc(C(=S)N2CCCC2)cc1,3.5
5,Cn1cc(CCCC(=O)NCc2ccc(F)cc2)c2ccccc21,22.7
6,Cc1nc(N)[nH]c(=O)c1CC(=O)OCCCl,30.4
7,COc1c(C(=O)Nc2ccc(Br)cn2)ccc2ccccc12,< 0.4
8,Cc1ccccc1OCCCC(=O)NC1CCCCC1,3.7
9,O=C(NC(=O)c1ccccc1O)c1ccc2c(c1)CCO2,> 42.5
10,CSc1ccc(CN(C)C(C)C(=O)NCC2CCCCC2)cc1 (centres undefined),28.3
11,O=C(Cn1ncc(Cl)c(Cl)c1=O)NC1CCCCC1,> 45.6
12,COC(=O)c1c(C)[nH]c(C)c1-c1ccc([N+](=O)[O-])cc1,36.3
13,Cc1noc(COc2ccccc2OCC(N)=O)n1,> 39.5
14,Cn1cccc1C(=O)OCc1ccc(C(C)(C)C)cc1,0.7
15,CCN(CC(=O)Nc1c(F)cccc1F)C(=O)C1CC1C (centres undefined),> 44.4
16,COc1ccc(CC(=O)Nc2ccc(S(=O)(=O)N3CCCC3)cc2)cc1OC,> 60.7
17,COc1ccc(NC(=O)Cn2cc(C(=O)C3CC3)c3ccccc32)cc1,0.5
18,Cc1ccc(NC(=O)N2CCCCCC2)cc1,> 34.8
19,CC(=O)c1ccc(N2CCc3ccccc3C2)c([N+](=O)[O-])c1,8.3
20,CC(C)(C)NC(=O)CSc1nc2ccccc2c(=O)[nH]1,30.9
21,COc1ccc2oc(=O)c(C(=O)NCCc3ccc(OC)c(OC)c3)cc2c1,< 0.8
22,COc1ccc2c(COC(=O)[C@H](C)NS(=O)(=O)c3ccccc3F)cc(=O)oc2c1,59.1
23,Cc1noc(C)c1C(=O)NC1=NCCS1,> 33.8

# — PubChem BioAssay AID1996
